As usually defined, the EC50 is the concentration needed to bring the measured effect to its halfway point. The term IC50 denotes the point on the concentration scale where inhibition reaches its midpoint.

This note sets out measurements from patent publication US8420697B2, “Treatment of acute exacerbation of asthma and reduction of likelihood of hospitalization of patients suffering therefrom” (MediciNova, Inc., priority 2009, dated 2013).

Data set [1] deals with T1, Hu β2 (Homo sapiens, UniProt P07550).
T1 construct: host or cells: CHO
The experiment in a line: Cell bioassay, cAMP accumulation, human β2 in CHO. The format is cell-based. From the text: (§1) The Active Agent (MN-221 a/k/a bedoradrine or its pharmaceutically acceptable salts) administered intravenously allows it to distribute and partition into the congested lung tissue of AEA patients and allow bronchodilation without undue cardiovascular side effects. Table 1, below, provides an example of the adrenoceptor action profile for MN-221 determined experimentally: [table]

Data set [2] addresses T1, Hu β2. The experiment in a line: Competitive binding (Cerep 14320), human β2.
From the text: as §1

The target in data set [3] is T2, Human β1 (Homo sapiens, UniProt P08588).
T2 construct: host or cells: HEK
The experiment in a line: Cell bioassay, cAMP accumulation, human β1 in HEK. The format is cell-based. Conditions: read-out: cell bioassay (EC50 cAMP accum.) β1.
From the text: as §1
On the technique in general: Changes in cAMP serve as a functional read-out for many G protein-coupled receptors.

Data set [4] has as its target T3, β2 (GP carbachol-tx trachea) (Cavia porcellus, UniProt Q8K4Z4).
T3 construct: tissue Cerep; host or cells: guinea pig trachea, carbachol-contracted
The data set is described as follows: Ex vivo organ bioassay (Cerep 13271), GP carbachol-treated trachea.
From the text: as §1

The subject of data set [5] is ragweed sensitized dogs. The experiment in a line: Reversal of ragweed-induced bronchoconstriction in sensitized dogs. Format: in vivo. Conditions: i.v. 0.04 to 0.4 mg/kg; between 0.75 and 6.7 min after dosing; p<0.001 up to 4.5 min, p<0.01 up to 6.7 min.
The test system of data set [6] is patients with severe AEA. The data set is described as follows: Clinical study of MN-221 plus SOC in emergency department patients with AEA. The format is in vivo, humans. As for the experimental part: MN-221 was tested at escalating doses of 240 μg to 1,080 μg in patients with AEA treated in emergency departments (EDs). The study included 29 (13 treated with SOC only and 16 treated with MN-221 in combination with SOC) patients with severe AEA. All patients were administered SOC treatment as follows: supplemental oxygen given to maintain oxygen saturation measured by pulse oximetry of ≧90%; two doses of inhaled beta2-agonist (in this study, albuterol 5 mg) via nebulizer given approximately every 20 minutes; simultaneously with two doses of an inhaled anti-cholinergic agent (in this study, ipratropium 0.5 mg) via nebulizer given approximately every 20 minutes; one dose of corticosteroid given orally (in this study, prednisone 60 mg) or intravenously (in this study, methylprednisolone 125 mg), and intravenous magnesium sulfate (2 gm, diluted with 50-100 mL normal saline) and given over 10 minutes to patients with an FEV1≦25% of predicted upon ED presentation treatment.
MN-221 was administered at the following doses: 16 μg/min for 15 minutes (total of 240 μg); 30 μg/min for 15 minutes (total of 450 μg); 16 μg/min for 15 minutes; 8 μg/min for 105 minutes (total of 1,080 μg). A lyophilized unit dose for of MN-221, containing 2 mg MN-221 and lactose in a 10 mL vial was employed in the administration. Vials containing 2 mg (2000 μg) of MN-221 and vials containing placebo were reconstituted as follows. 4 mL of 5% dextrose in water was added to each 10 mL vial containing MN-221 to make 500 μg/mL stock solution (2000 μg/4 mL=500 μg/mL). 2 mL (1,000 μg) of stock solution was added to 123 mL 5% dextrose in water to make the total volume of 125 mL (123 mL+2 mL=125 mL). Final MN-221 solution equal to 1,000 μg/125 mL or 8 μg/mL was prepared this way.
Patients were administered SOC treatment (inhaled albuterol, 2.5 mg via nebulizer up to every 20 minutes) and ipratropium (0.5 mg via nebulizer up to every 20 minutes) in addition to treatment with MN-221 or placebo.

Data set [7] deals with telemetered dogs. The data set is described as follows: Cardiovascular safety in telemetered dogs, i.v. MN-221 with nebulized albuterol. Format: in vivo. Conditions: for heart rate, agent alone: albuterol inhaled 5 or 10 ug/kg, MN-221 i.v. over 15 min 0.3, 3 or 30 ug/kg; for MAP or QTc, agent alone: either agent at any dose. As for the experimental part:
In a separate study with telemetered dogs at the Lovelace Respiratory Research Institute, the effect of i.v. MN-221 administration in addition to nebulized albuterol was performed to assess cardiovascular changes and safety of the combination therapy. Albuterol was administered by inhalation at 5 or 10 ug/kg and MN-221 was intravenously administered over 15 min at 0.3, 3, or 30 ug/kg. […] See, FIG. 4.

Data set [8] has as its system β1 (GP Rt atrium). The data set is described as follows: Ex vivo organ bioassay (Cerep 13271), GP right atrium.
From the text: as §1

Data set [9] deals with T2, Human β1. The experiment in a line: Competitive binding (Cerep 14320), human β1. Conditions: HEK (Human β1).
From the text: as §1

Where a name gives a salt, the structure may show the parent alone. Marks after values point to notes of the source that are not given here.

T1 sequence (P07550 whole entry): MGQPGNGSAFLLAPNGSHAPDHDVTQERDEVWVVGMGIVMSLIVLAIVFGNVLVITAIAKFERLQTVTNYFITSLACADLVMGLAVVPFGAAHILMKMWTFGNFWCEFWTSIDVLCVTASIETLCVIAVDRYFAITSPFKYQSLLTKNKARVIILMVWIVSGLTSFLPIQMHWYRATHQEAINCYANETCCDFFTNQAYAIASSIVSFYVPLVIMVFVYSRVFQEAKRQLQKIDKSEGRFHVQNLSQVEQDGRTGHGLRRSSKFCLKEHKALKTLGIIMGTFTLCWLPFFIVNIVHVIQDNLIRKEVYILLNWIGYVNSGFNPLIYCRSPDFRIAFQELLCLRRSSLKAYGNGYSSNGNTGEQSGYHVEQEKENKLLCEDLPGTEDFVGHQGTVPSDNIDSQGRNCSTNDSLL
T2 sequence (P08588 whole entry): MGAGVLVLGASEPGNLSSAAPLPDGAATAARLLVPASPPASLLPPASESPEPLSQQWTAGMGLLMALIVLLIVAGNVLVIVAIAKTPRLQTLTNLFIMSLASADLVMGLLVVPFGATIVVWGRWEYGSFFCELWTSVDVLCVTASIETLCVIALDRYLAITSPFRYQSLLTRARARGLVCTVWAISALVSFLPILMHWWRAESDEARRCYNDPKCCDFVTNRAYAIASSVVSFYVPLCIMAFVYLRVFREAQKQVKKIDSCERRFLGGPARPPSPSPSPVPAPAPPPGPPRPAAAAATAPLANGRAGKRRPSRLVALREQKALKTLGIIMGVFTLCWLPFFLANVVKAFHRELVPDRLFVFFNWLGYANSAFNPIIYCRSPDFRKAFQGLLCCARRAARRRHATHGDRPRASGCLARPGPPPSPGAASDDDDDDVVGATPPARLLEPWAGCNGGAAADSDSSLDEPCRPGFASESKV
T3 sequence (Q8K4Z4 whole entry): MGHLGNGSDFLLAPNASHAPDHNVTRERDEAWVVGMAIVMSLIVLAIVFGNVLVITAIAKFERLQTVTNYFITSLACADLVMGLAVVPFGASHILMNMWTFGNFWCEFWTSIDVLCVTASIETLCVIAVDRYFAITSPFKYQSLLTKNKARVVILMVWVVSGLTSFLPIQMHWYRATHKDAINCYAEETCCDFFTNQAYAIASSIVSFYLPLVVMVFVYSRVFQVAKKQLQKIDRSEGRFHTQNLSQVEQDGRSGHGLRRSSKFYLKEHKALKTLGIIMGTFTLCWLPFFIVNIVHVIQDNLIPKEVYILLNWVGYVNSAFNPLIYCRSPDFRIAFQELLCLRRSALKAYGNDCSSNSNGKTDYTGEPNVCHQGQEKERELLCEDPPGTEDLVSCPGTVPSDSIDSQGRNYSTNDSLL

Turning to `CN(C)C(=O)COc1ccc2c(c1)C[C@@H](NC[C@H](O)c1ccc(O)c(CCO)c1)CC2` [MN-221, acetamide, N,N-dimethyl-2-[[(7S)-5,6,7,8-tetrahydro-7-[[(2R)-2-hydroxy-2-[4-hydroxy-3-(2-hydroxyethyl)phenyl]ethyl]amino]-2-naphthalenyl]oxy], sulfate], the EC50 in data set [1] (CHO (Hu β2), read-out: cell bioassay (EC50 cAMP accum.) β2) is 0.013 µM; in data set [3] it was greater than 50 µM; in data set [4] (GP carbachol-tx trachea (% salbut)), 0.028 µM. In addition, the “cell bioassay cAMP accum. β1/β2” value in data set [1] (ratio of EC50 β1 to β2) is listed as greater than 3000. For the same compound, the half-maximal inhibitory concentration (IC50) worked out at 0.27 µM in data set [2] (CHO (Hu β2)) and 11.8 µM in [9]. The “Competitive Binding β1/β2” value in [2] (ratio of IC50 β1 to β2) is reported as 42. Also, the “ex vivo Organ bioassay β1/β2” value in data set [4] (ratio of EC39 (atrium) to EC50 (trachea)) worked out at 36. In data set [5], the “reversal of ragweed-induced bronchoconstriction” value was “statistically significant, and near maximal reversal of bronchoconstriction”. In data set [6] (MN-221 added to standardized care), the “safety (ECG, laboratory, adverse experience data)” value is on record as “No safety concerns”. Besides, in data set [6] (MN-221 combined with SOC, FIG. 2), the “heart rate change in patients” value is “absence of significant heart rate increase”. Also, the “Improvement in FEV1 values versus SOC” value in [6] (MN-221 in addition to SOC treatment) was “generally appeared to be greater”. Moreover, the hospitalization rate in [6] (MN-221 with SOC, 4 of 16 patients, SOC only 54% (7 of 13)) is recorded as 25%. Further, the “MAP, QTc with combination therapy” value in data set [7] (MN-221 plus albuterol) is on record as “not adversely changed”. In addition, the “heart rate, agent alone” value in data set [7] is “increased heart rate to a modest level”. For the same compound, the “heart rate, MN-221 added on top of albuterol” value in [7] (clinically-relevant doses of both) is “no additional increase in heart rate”. For the same compound, the “MAP or QTc, agent alone” value in data set [7] is recorded as “No adverse changes”. For the same compound, in [8] (GP Rt atrium), the agonist character result was “a partial agonist”. Besides, the “ex vivo Organ bioassay est EC39 β1” value in [8] (GP Rt atrium (% isoprot), EC39 = 39% of isoproterenol maximum response) is reported as ~1* μM. Moreover, the Emax entry in data set [8] (GP Rt atrium, % of isoproterenol maximum response) is “Emax = 39%”.
Consider `CC(C)(C)NCC(O)c1ccc(O)c(CO)c1` (stereo not shown) [albuterol, reference compound], for which, in data set [7], the “heart rate, agent alone” value is listed as “increased heart rate to a modest level” and the “MAP or QTc, agent alone” value is recorded as “No adverse changes”.
